Data set [1] in a line: Cytotoxicity in mock-infected MT-4 cells (MTT). Type of data set: cell-based. The note with it: human, mock-infected MT-4 cells. The protocol: A rapid and automated assay procedure was used for the in vitro evaluation of anti-HIV agents. An HTLV-1 transformed T4-cell line MT-4, which was previously shown to be highly susceptible to and permissive for HIV infection, served as the target cell line. Inhibition of the HIV-induced cytopathogenic effect was used as the end point. The viability of both HIV-and mock-infected cells was assessed spectrophotometrically via in situ reduction of 3-(4,5-dimethylthiazol-2-yl)-2,5-diphenyltetrazolium bromide (MTT). […] The percent protection achieved by the compound in HIV-infected cells was calculated by the following formula: […]
whereby (ODT)HIV is the optical density measured with a given concentration of the test compound in HIV-infected cells; (ODC)HIV is the optical density measured for the control untreated HIV-infected cells; (ODC)MOCK is the optical density measured for the control untreated mock-infected cells; all optical density values were determined at 540 nm. […] The ratio of CC50 to EC50 was defined as the selectivity index (SI).

The test system of another data set is HIV. Briefly: microbe, parasite or virus in culture. The note with it: Human immunodeficiency virus 1, MT4. Type of data set: cell-based. The protocol: A rapid and automated assay procedure was used for the in vitro evaluation of anti-HIV agents. An HTLV-1 transformed T4-cell line MT-4, which was previously shown to be highly susceptible to and permissive for HIV infection, served as the target cell line. Inhibition of the HIV-induced cytopathogenic effect was used as the end point. The viability of both HIV-and mock-infected cells was assessed spectrophotometrically via in situ reduction of 3-(4,5-dimethylthiazol-2-yl)-2,5-diphenyltetrazolium bromide (MTT). The 50% cytotoxic concentration (CC50 in μg/ml) was defined as the concentration of compound that reduced the absorbance of the mock-infected control sample by 50%. The percent protection achieved by the compound in HIV-infected cells was calculated by the following formula: […]
whereby (ODT)HIV is the optical density measured with a given concentration of the test compound in HIV-infected cells; (ODC)HIV is the optical density measured for the control untreated HIV-infected cells; (ODC)MOCK is the optical density measured for the control untreated mock-infected cells; all optical density values were determined at 540 nm. The dose achieving 50% protection according to the above formula was defined as the 50% inhibitory concentration (EC50 in μg/ml or μM). The ratio of CC50 to EC50 was defined as the selectivity index (SI). […] Examples of inhibition of cell proliferation by particular compounds of the invention can be found by looking at the respective CC50 values in the MT-4 cell line. Cells: MT-4 cells (Miyoshi et al., 1982) were grown and maintained in RPMI 1640medium supplemented with 10% heat-inactivated fetal calf serum, 2 mM 1-glutamine, 0.1% sodium bicarbonate, and 20æg of gentamicin per ml.
Viruses: The HIV-1 (NL4.3) strain (Adachi et al., 1986) is a molecular clone obtained from the National Institutes of Health (Bethesda, Md.). The HIV-2 (ROD) (Barr, -Sinoussi et al., 1983) stock was obtained from culture supernatant of HIV-2 infected cell lines.

Data set [2] has as its target T1, LEDGF-integrase interaction (His6-tagged HIV-1 integrase, flag-LEDGF/p75) (Human immunodeficiency virus type 1 group M subtype B, UniProt P04585).
T1 construct: His6-tagged HIV-1 integrase; made in house
Briefly: AlphaScreen assay of LEDGF-integrase interaction inhibition. In kind it is binding. The note with it: compound at 100 μM. Here is the method: The AlphaScreen assay was performed according to the manufacturer's protocol (Perkin Elmer, Benelux). Reactions were performed in 25 μl final volume in 384-well Optiwell™ microtiter plates (Perkin Elmer). The reaction buffer contained 25 mM Tris-HCl (pH 7.4), 150 mM NaCl, 1 mM MgCl2, 0.01% (v/v) Tween-20 and 0.1% (w/v) bovine serum albumin. His6-tagged integrase (300 nM final concentration) was incubated with the compounds for 30 min at 4° C. The compounds were added at varying concentrations spanning a wide range from 0.1 up to 100 μM. Afterwards 100 nM flag-LEDGF/p75 was added and incubation was prolonged for an additional hour at 4° C. Subsequently 5 μl of Ni-chelate—coated acceptor beads and 5 μl anti-flag donor beads were added to a final concentration of 20 μg/ml of both beads. Proteins and beads were incubated for 1 h at 30° C. in order to allow association to occur. Exposure of the reaction to direct light was omitted as much as possible and the emission of light from the acceptor beads was measured in the EnVision plate reader (Perkin Elmer, Benelux) and analyzed using the EnVision manager software. IN/DNA binding was analyzed in a similar setting using His6-tagged integrase (1 μM final concentration) and an oligodeoxynucleotide mimicking the IN ELISA oligonucleotide substrate (30 nM final concentration). Counterscreens with JPO2 or PogZ, respectively, were essentially performed as described previously. Expression and purification of recombinant proteins: His6-tagged HIV-1 integrase, 3xflag-tagged LEDGF/p75, MBP-JPO2 and MBP-PogZ were purified for AlphaScreen applications as described previously.

The mark [3] stands for this setting: 50% protection of HIV-infected MT-4 cells, read-out: EC50.

Where two headings read alike, the source gives them in different places. Bounds are passed on as bounds.

Regarding `CCCC(C(=O)O)c1c(C)nc2ccnn2c1-c1ccc(C)cc1` (centres unmarked) [CPD-57, 2-(5-methyl-7-p-tolylpyrazolo[1,5-a]pyrimidin-6-yl)pentanoic acid], in data set [1], the CC50 was over 250 µM. Also, in the data set with HIV (setting [3]), the EC50 turned out to be 192 µM. For the same compound, in data set [2], the “Alpha screen % (100 μM)” value stood at 84%.

In turn, `CCCC(C(=O)O)c1c(C)nc2cc(C(C)(C)C)nn2c1-c1ccc(F)cc1F` (centres unmarked) [CPD-91, 2-(2-tert-butyl-7-(2,4-difluorophenyl)-5-methylpyrazolo[1,5-a]pyrimidin-6-yl)pentanoic acid] returned a CC50 in data set [1] of 85.5 µM. Further, the EC50 in the data set with HIV (setting [3]) turned out to be 15.7 µM. In data set [2], the “Alpha screen % (100 μM)” value came out at 90%.

On to `CCCC(C(=O)O)c1c(C)nc2cc(-c3ccccc3)nn2c1-c1ccc(C)cc1` (centres unmarked) [CPD-61, 2-(5-methyl-2-phenyl-7-p-tolylpyrazolo[1,5-a]pyrimidin-6-yl)pentanoic acid], for which the CC50 in data set [1] is 104 µM. Besides, the EC50 in the data set on HIV (setting [3]) was determined as 30.2 µM. The “Alpha screen % (100 μM)” value in data set [2] is recorded as 94%.

As for `CCCC(C(=O)O)c1c(C)nc2cc(C(C)(C)C)nn2c1-c1ccc(OC)cc1F` (centres unmarked) [CPD-95, 2-(2-tert-butyl-7-(2-fluoro-4-methoxyphenyl)-5-methylpyrazolo[1,5-a]pyrimidin-6-yl)pentanoic acid], half-maximal cytotoxicity in data set [1] (CC50) was put at 115 µM. Besides, the EC50 with HIV (setting [3]) turned out to be 7.48 µM. Moreover, the “Alpha screen % (100 μM)” value in data set [2] is reported as 83%.

In the case of `CCC(C)C(C(=O)O)c1c(C)nc2cc(C(C)(C)C)nn2c1-c1ccc(C)cc1` (centres unmarked) [CPD-86, 2-(2-tert-butyl-7-p-tolyl-5-methylpyrazolo[1,5-a]pyrimidin-6-yl)-3-methylpentanoic acid], half-maximal cytotoxicity in data set [1] (CC50) was put at 77 µM.

`CCCC(C(=O)O)c1c(C)nc2cc(C(C)(C)C)nn2c1-c1ccc(CC)cc1` (centres unmarked) [CPD-71, 2-(2-tert-butyl-7-(4-ethylphenyl)-5-methylpyrazolo[1,5-a]pyrimidin-6-yl)pentanoic acid] came in with a CC50 in data set [1] of 73 µM. In the data set with HIV (setting [3]), the EC50 was found to be 2.8 µM. Besides, the “Alpha screen % (100 μM)” value in data set [2] was found to be 74%.

For `CCCC(C(=O)O)c1c(C)nc2cc(C(C)(C)C)nn2c1-c1ccc(C)cc1C` (centres unmarked) [CPD-98, 2-(2-tert-butyl-7-(2,4-dimethylphenyl)-5-methylpyrazolo[1,5-a]pyrimidin-6-yl)pentanoic acid], in data set [1], the CC50 came to 69 µM. This compound yielded a concentration giving a half-maximal response (EC50) with HIV of 5.91 µM. Further, the “Alpha screen % (100 μM)” value in data set [2] amounted to 89%.

In the case of `CCCC(C(=O)O)c1c(C)nc2cc(C(C)(C)C)nn2c1-c1ccc(C)cc1Cl` (centres unmarked) [CPD-92, 2-(2-tert-butyl-7-(2-chloro-4-methylphenyl)-5-methylpyrazolo[1,5-a]pyrimidin-6-yl)pentanoic acid], the CC50 in data set [1] was determined as 60.5 µM. The EC50 with HIV (setting [3]) turned out to be 9.13 µM. In addition, the “Alpha screen % (100 μM)” value in data set [2] is on record as 95%.

In data set [1], `CCCC(C(=O)O)c1c(C)nc2c(C)c(C(C)(C)C)nn2c1-c1ccc(C)cc1` (centres unmarked) [CPD-99, 2-(2-tert-butyl-3,5-dimethyl-7-p-tolylpyrazolo[1,5-a]pyrimidin-6-yl)pentanoic acid] registered a CC50 of 34 µM. Further, in the data set with HIV (setting [3]), the EC50 stood at 1.01 µM. The “Alpha screen % (100 μM)” value in data set [2] was 81%.

In turn, `CCCC(C(=O)O)c1c(C)nc2cc(C(C)(C)C)nn2c1-c1ccc(C)cc1N` (centres unmarked) [CPD-93, 2-(7-(2-amino-4-methylphenyl)-2-tert-butyl-5-methylpyrazolo[1,5-a]pyrimidin-6-yl)pentanoic acid] yielded a cytotoxic concentration (CC50) in data set [1] of 119 µM. The EC50 in the data set with HIV was determined as 7.4 µM. Moreover, the “Alpha screen % (100 μM)” value in data set [2] is listed as 90%.

Regarding `COCCC(C(=O)O)c1c(C)nc2cc(C(C)(C)C)nn2c1-c1ccc(C)cc1` (centres unmarked) [CPD-88, 2-(2-tert-butyl-7-p-tolyl-5-methylpyrazolo[1,5-a]pyrimidin-6-yl)-4-methoxybutanoic acid], the CC50 in data set [1] is over 250 µM. The EC50 in the data set on HIV (setting [3]) came out at 38 µM. In data set [2], the “Alpha screen % (100 μM)” value turned out to be 44%.

`CCCC(C(=O)O)c1c(C)nc2cc(C(C)(C)C)nn2c1-c1ccc(C)cc1` (centres unmarked) [CPD-59, 2-(2-tert-butyl-5-methyl-7-p-tolylpyrazolo[1,5-a]pyrimidin-6-yl)pentanoic acid] displayed a CC50 in data set [1] of over 250 µM. The EC50 with HIV (setting [3]) was 14.3 µM. The “Alpha screen % (100 μM)” value in data set [2] was found to be 92%.

`CCCC(C(=O)O)c1c(C)nc2c(-c3ccccc3)c(C(C)(C)C)nn2c1-c1ccc(C)cc1` (centres unmarked) [CPD-100, 2-(2-tert-butyl-5-methyl-3-phenyl-7-p-tolylpyrazolo[1,5-a]pyrimidin-6-yl)pentanoic acid] came in with a CC50 in data set [1] of 23 µM. Besides, the EC50 with HIV (setting [3]) was 6.24 µM. For the same compound, the “Alpha screen % (100 μM)” value in data set [2] is listed as 92%.

Turning to `CCCC(C(=O)O)c1c(C)nc2c(Cl)c(C(C)(C)C)nn2c1-c1ccc(C)cc1` (centres unmarked) [CPD-87, 2-(2-tert-butyl-3-chloro-7-p-tolyl-5-methylpyrazolo[1,5-a]pyrimidin-6-yl)pentanoic acid], it took 38.3 µM to reach half-maximal cytotoxicity in data set [1] (CC50). The EC50 with HIV (setting [3]) was 2.33 µM. Further, in data set [2], the “Alpha screen % (100 μM)” value came out at 67%.

`CCCc1cc2nc(C)c(C(CCC)C(=O)O)c(-c3ccc(C)cc3)n2n1` (centres unmarked) [CPD-77, 2-(5-methyl-2-propyl-7-p-tolylpyrazolo[1,5-a]pyrimidin-6-yl)pentanoic acid] had a CC50 in data set [1] of 203 µM. In addition, in the data set with HIV (setting [3]), the EC50 turned out to be 28.1 µM. In addition, in data set [2], the “Alpha screen % (100 μM)” value amounted to 83%.

For `CCCC(C(=O)O)c1c(C)nc2cc(C(C)(C)C)nn2c1-c1ccc2c(c1)CCCO2` (centres unmarked) [CPD-85], the CC50 in data set [1] was 125 µM. Further, in the data set on HIV (setting [3]), the EC50 stood at 2.54 µM. In data set [2], the “Alpha screen % (100 μM)” value is reported as 76%.

In turn, `CCCC(C(=O)O)c1c(C)nc2cc(C(C)(C)C)nn2c1-c1ccc(Cl)cc1F` (centres unmarked) [CPD-79, 2-(2-tert-butyl-7-(4-chloro-2-fluorophenyl)-5-methylpyrazolo[1,5-a]pyrimidin-6-yl)pentanoic acid] gave a CC50 in data set [1] of 76 µM. Further, in the data set on HIV (setting [3]), the EC50 was determined as 1.89 µM. Also, the “Alpha screen % (100 μM)” value in data set [2] came out at 75%.

As for `CCCC(C(=O)O)c1c(C)nc2c(nc(C)n2C)c1-c1ccc(C)cc1` (centres unmarked) [CPD-105, 2-(2,3,5-Trimethyl-7-p-tolyl-3H-imidazo[4,5-b]pyridin-6-yl)pentanoic acid], the CC50 in data set [1] was determined as 235 µM. Further, the EC50 in the data set with HIV (setting [3]) was determined as 23.2 µM.

Consider `CCCC(C(=O)O)c1c(C)nc2cc(C(C)(C)C)nn2c1-c1ccc(Cl)cc1` (centres unmarked) [CPD-69, 2-(2-tert-butyl-7-(4-chlorophenyl)-5-methylpyrazolo[1,5-a]pyrimidin-6-yl)pentanoic acid], for which it took 40.3 µM to reach half-maximal cytotoxicity in data set [1] (CC50). The same compound returned an EC50 with HIV of 1.61 µM. Besides, the “Alpha screen % (100 μM)” value in data set [2] is recorded as 93%.

Compound `CCCC(C(=O)O)c1c(C)nc2nc(C(C)C)nn2c1-c1ccc(C)cc1` (centres unmarked) [CPD-121, 2-(2-isopropyl-5-methyl-7-p-tolyl-[1,2,4]-triazolo[1,5-a]pyrimidin-6-yl)pentanoic acid] yielded a CC50 in data set [1] of over 250 µM. Besides, the EC50 in the data set on HIV (setting [3]) amounted to 124 µM.

One may read the CC50 as the concentration that lowers cell viability or growth by half. The term EC50 denotes the concentration that produces a half-maximal response.

For the origin of these results see patent US20120316161A1, “NOVEL ANTIVIRAL COMPOUNDS” (KATHOLIEKE UNIVERSITEIT LEUVEN, priority 2009, published 2012).
